Measured values from PubChem BioAssay AID1963834 (Molecular Pharmacology Branch, DTP, NCI, 2024).

Tested on: 873145-292-R-J1-PDC complex spheroid viability
Assay: Anticancer human tumor 873145-292-R-J1-PDC patient-derived renal clear cell carcinoma cell line growth inhibition [POLQ]
Conditions: for IC50: curve of first compound; for viability, T/C: stronger effect = lower value
Method: Multicellular complex tumor spheroid response to Polymerase (POL) inhibitors (novobiocin, ART-558, RP6685) in combination with a variety of drugs and investigational agents in selected tumor cell lines
The POL inhibitors (novobiocin, ART-558, and RP6685) were evaluated both individually and in combination with standard of care and investigational anticancer small molecules within a complex spheroid model of solid tumors. . Complex spheroids include a stromal component modeled by human endothelial cells (HUVEC) and fibroblasts modeled by human mesenchymal stem cells (MSCs). The concentration ranges selected for each drug and investigational agent were based upon clinically achievable concentrations if the clinical Cmax of the agent was known.
Compounds. The drugs and investigational agents: novobiocin (NSC847541), ART-558 (NSC835418), RP-6685 (NSC848927), peposertib (NSC802822), ceralasertib (NSC780249), elimusertib (NSC800525), camonsertib (NSC841442), AZD-1390 (NSC803789), olaparib (NSC753686), talazoparib (NSC767125), rucaparib (NSC756644), sotorasib (NSC818433), MRTX-1133 (NSC836407), SN-38 (NSC673596), topotecan (NSC609699), epotoside (NSC141540), doxorubicin (NSC123127), gemcitabine (NSC613327), 5-fluorouracil (NSC19893), paclitaxel (NSC125973), vemurafenib (NSC761431), MSA-2 (NSC828583), SN-011 (NSC837082), adavosertib (NSC754352), prexasertib (NSC758257), carboplatin (NSC241240) and oxaliplatin (NSC266046), were obtained from the National Cancer Institute (NCI) Developmental Therapeutics Program Chemical Repository (21). The FDA-approved anticancer drug set is available from the Developmental Therapeutics Program at https://dtp.cancer.gov/organization/dscb/obtaining/. […] The stock solutions were prepared in dimethyl sulfoxide (DMSO, Sigma-Aldrich, St. Louis, MO, cat. D2650), except for the platinum compounds which were prepared in saline (Quality Biological, Gaithersburg, MD, cat. 114-055-101), at 800-fold the tested concentration and stored at -70 degrees C prior to their use. All drugs and investigational agents were tested over a range starting from a high concentration at or near the clinical Cmax and decreasing in half-log increments. If the clinical Cmax for an agent had not been determined, the highest concentration tested was 10 microM, except for SN-38, which was tested at a high concentration of 1 microM.
Cell Culture. All cells were maintained in an incubator at 37 degrees C and 5% CO2 with 95% humidity. The PDC lines were cultured according to standard operating procedures established by the NCI PDMR (https://pdmr.cancer.gov). Table 3 of the manuscript, lists the cell lines along with the number of the three cell types plated to form the mct-spheroids and media for tumor cell growth. After thawing, all PDC lines, except 997537-175-T-J1-PDC and 415267-285-R-J2-PDC, were cultured in Matrigel-coated flasks prepared with a working solution of 1X Ham's F-12 nutrient mix, without supplementation (Thermo Fisher Scientific, cat. 11765054), 100 U/mL penicillin-streptomycin (Thermo Fisher Scientific, cat. 15140122), and 2.5% Matrigel (Corning Inc., Corning, NY, cat. 354248) for the first three passages. The two PDC lines 997537-175-T-J1-PDC and 415267-285-R-J2-PDC were cultured on uncoated flasks. The 857933-349-R-J2-PDC line was cultured in 6C/Colon 1B media containing advanced DMEM/F-12 (Thermo Fisher Scientific, cat. 12634028), 10 mM HEPES (Thermo Fisher Scientific, cat. 15630080), 1X GlutaMAX supplement (Thermo Fisher Scientific, cat. 35050061), 0.1 mg/mL primocin (InvivoGen, San Diego, CA, cat. ant-pm-2), 10% defined fetal bovine serum, heat inactivated (HyClone Laboratories Inc., Logan, UT, cat. SH30070.03HI), 50% L-WRN conditioned media (ATCC, cat. CRL-3276), 1.25 mM N-Acetyl-L-cysteine (Sigma-Aldrich, cat. A9165), 10 mM nicotinamide (Sigma-Aldrich, cat. N0636), 1X B-27 supplement (Thermo Fisher Scientific, cat. 17504044), 1X N-2 supplement (Thermo Fisher Scientific, cat. […]

[1] = second compound 0.0316 µM, first compound 0.0316 µM
[2] = second compound 0.0316 µM, first compound 0.1 µM
[3] = second compound 0.0316 µM, first compound 0.316 µM
[4] = second compound 0.0316 µM, first compound 1 µM
[5] = second compound 0.1 µM, first compound 0.0316 µM
[6] = second compound 0.1 µM, first compound 0.1 µM
[7] = second compound 0.1 µM, first compound 0.316 µM
[8] = second compound 0.1 µM, first compound 1 µM
[9] = second compound 0.316 µM, first compound 0.0316 µM
[10] = second compound 0.316 µM, first compound 0.1 µM
[11] = second compound 0.316 µM, first compound 0.316 µM
[12] = second compound 0.316 µM, first compound 1 µM
[13] = second compound 1 µM, first compound 0.0316 µM
[14] = second compound 1 µM, first compound 0.1 µM
[15] = second compound 1 µM, first compound 0.316 µM
[16] = second compound 1 µM, first compound 1 µM
[17] = second compound 3.16 µM, first compound 0.0316 µM
[18] = second compound 3.16 µM, first compound 0.1 µM
[19] = second compound 3.16 µM, first compound 0.316 µM
[20] = second compound 3.16 µM, first compound 1 µM
[21] = second compound 10 µM, first compound 0.0316 µM
[22] = second compound 10 µM, first compound 0.1 µM
[23] = second compound 10 µM, first compound 0.316 µM
[24] = second compound 10 µM, first compound 1 µM
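Also: spheroids exposed to compounds for 7 days before viability readout.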
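For viability, T/C in this document: luminescence signal used as surrogate for viable cell content; 100% = DMSO vehicle control viability.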

SMILES: C=CCn1c(=O)c2cnc(Nc3ccc(N4CCN(C)CC4)cc3)nc2n1-c1cccc(C(C)(C)O)n1 + COC1C(OC(N)=O)C(O)C(Oc2ccc3c(O)c(NC(=O)c4ccc(O)c(CC=C(C)C)c4)c(=O)oc3c2C)OC1(C)C
- IC50 (second compound 0.0316 µM): > 1 µM
- IC50 (second compound 0.1 µM): > 1 µM
- IC50 (second compound 0.316 µM): > 1 µM
- IC50 (second compound 1 µM): > 1 µM
- IC50 (second compound 3.16 µM): > 1 µM
- IC50 (second compound 10 µM): > 1 µM
- viability, T/C (second compound 0.0316 µM, first compound 0.00316 µM): 98.9%
- viability, T/C (second compound 0.0316 µM, first compound 0.01 µM): 109%
- viability, T/C [1]: 89.8%
- viability, T/C [2]: 85.5%
- viability, T/C [3]: 90.7%
- viability, T/C [4]: 70.1%
- viability, T/C (second compound 0.1 µM, first compound 0.00316 µM): 102%
- viability, T/C (second compound 0.1 µM, first compound 0.01 µM): 97.6%
- viability, T/C [5]: 100%
- viability, T/C [6]: 95.5%
- viability, T/C [7]: 84.9%
- viability, T/C [8]: 69.9%
- viability, T/C (second compound 0.316 µM, first compound 0.00316 µM): 100%
- viability, T/C (second compound 0.316 µM, first compound 0.01 µM): 109%
- viability, T/C [9]: 96%
- viability, T/C [10]: 97.7%
- viability, T/C [11]: 83.5%
- viability, T/C [12]: 74.5%
- viability, T/C (second compound 1 µM, first compound 0.00316 µM): 98.8%
- viability, T/C (second compound 1 µM, first compound 0.01 µM): 96%
- viability, T/C [13]: 99.6%
- viability, T/C [14]: 83.2%
- viability, T/C [15]: 94.6%
- viability, T/C [16]: 63.1%
- viability, T/C (second compound 3.16 µM, first compound 0.00316 µM): 100%
- viability, T/C (second compound 3.16 µM, first compound 0.01 µM): 98.8%
- viability, T/C [17]: 89.5%
- viability, T/C [18]: 89.5%
- viability, T/C [19]: 88.3%
- viability, T/C [20]: 75.7%
- viability, T/C (second compound 10 µM, first compound 0.00316 µM): 100%
- viability, T/C (second compound 10 µM, first compound 0.01 µM): 92.1%
- viability, T/C [21]: 101%
- viability, T/C [22]: 96.8%
- viability, T/C [23]: 76.5%
- viability, T/C [24]: 72%

SMILES: CC1COCCN1c1cc(C2(S(C)(=N)=O)CC2)nc(-c2ccnc3[nH]ccc23)n1 (centres undefined) + COC1C(OC(N)=O)C(O)C(Oc2ccc3c(O)c(NC(=O)c4ccc(O)c(CC=C(C)C)c4)c(=O)oc3c2C)OC1(C)C
- IC50 (second compound 0.0316 µM): > 10 µM
- IC50 (second compound 0.1 µM): > 10 µM
- IC50 (second compound 0.316 µM): > 10 µM
- IC50 (second compound 1 µM): > 10 µM
- IC50 (second compound 3.16 µM): > 10 µM
- IC50 (second compound 10 µM): > 10 µM
- viability, T/C [1]: 98.8%
- viability, T/C [2]: 101%
- viability, T/C [3]: 88.6%
- viability, T/C [4]: 88.3%
- viability, T/C (second compound 0.0316 µM, first compound 3.16 µM): 86.4%
- viability, T/C (second compound 0.0316 µM, first compound 10 µM): 67.8%
- viability, T/C [5]: 105%
- viability, T/C [6]: 94.7%
- viability, T/C [7]: 90.8%
- viability, T/C [8]: 90.1%
- viability, T/C (second compound 0.1 µM, first compound 3.16 µM): 81.3%
- viability, T/C (second compound 0.1 µM, first compound 10 µM): 58.5%
- viability, T/C [9]: 102%
- viability, T/C [10]: 95.6%
- viability, T/C [11]: 90%
- viability, T/C [12]: 82.7%
- viability, T/C (second compound 0.316 µM, first compound 3.16 µM): 80.3%
- viability, T/C (second compound 0.316 µM, first compound 10 µM): 55.8%
- viability, T/C [13]: 100%
- viability, T/C [14]: 90.2%
- viability, T/C [15]: 96.7%
- viability, T/C [16]: 95.6%
- viability, T/C (second compound 1 µM, first compound 3.16 µM): 85.6%
- viability, T/C (second compound 1 µM, first compound 10 µM): 61.5%
- viability, T/C [17]: 100%
- viability, T/C [18]: 90.1%
- viability, T/C [19]: 103%
- viability, T/C [20]: 82.7%
- viability, T/C (second compound 3.16 µM, first compound 3.16 µM): 82.6%
- viability, T/C (second compound 3.16 µM, first compound 10 µM): 62.2%
- viability, T/C [21]: 95.1%
- viability, T/C [22]: 92.9%
- viability, T/C [23]: 95.6%
- viability, T/C [24]: 81.1%
- viability, T/C (second compound 10 µM, first compound 3.16 µM): 74.8%
- viability, T/C (second compound 10 µM, first compound 10 µM): 64.6%
